Results from patent US8337903B2, “Antitumoral agents with a benzophenanthridine structure and formulations containing them” (Indena S.p.A., priority 2008, dated 2012).

How the values were obtained:
[1] = tested on: oropharynx, head and neck tumors, melanoma and cervical tumors; assay: treatment of oropharynx, head and neck tumors, melanoma and cervical tumors; format: in vivo; settings: oral and topical administration; compared with the unsalified alkaloid
Excerpt: The product most suitable for oral and topical administration is the salt of sanguinarine with luteic acid.

melanoma stem cells = assay: in vitro inhibiting activity towards melanoma stem cells; format: cell-based; settings: concentration of 200 ng/ml
Excerpt: (§1) Its behaviour towards other oncological stem cells is identical. These alkaloids can consequently be considered new-generation antitumoral agents, which are able to treat human tumors effectively. For tumors of the colon, liver, pancreas and cervix the most appropriate form is the salt with luteic acid dispersed in a suitable vehicle, whereas for the treatment of skin tumors such as melanoma, the salt with a phosphatidic acid can advantageously be administered topically directly to the area affected by the tumor.

colon stem cells = assay: in vitro inhibiting activity towards colon stem cells; format: cell-based; settings: concentration of 200 ng/ml
Excerpt: as §1

For “luteic acid sanguinarine salt [salt of sanguinarine with luteic acid]”, the “effectiveness in the treatment of tumors” value [1] was “particularly effective”, the “inhibiting activity towards melanoma stem cells” value (melanoma stem cells) was “potent inhibiting activity” and the “inhibiting activity towards colon stem cells” value (colon stem cells) was “potent inhibiting activity”.
